Biological target: VHL (Homo sapiens (Human), UniProt P40337)
Test: VHL fluorescence polarization (FP) competition assay
Format: binding

Structure (SMILES) | IC50 (0.25% in DMSO) | IC50 (1% in DMSO) | IC50 (10% in DMSO) | VHL FP Assay IC50 (1% in DMSO) | VHL FP Assay IC50 (10% in DMSO)
Cc1ncsc1-c1ccc(CNC(=O)[C@@H]2C[C@@H](O)CN2C(=O)[C@@H](NC(=O)C2CCCCC2)C(C)(C)C)cc1 [Example 36, (2S,4R)-1-((S)-2-(cyclohexanecarboxamido)-3,3-dimethylbutanoyl)-4-hydroxy-N-(4-(4-methylthiazol-5-yl)benzyl)pyrrolidine-2-carboxamide] | 6.54 µM | 3.55 µM | 5.48 µM | – | –
Cc1ncsc1-c1ccc(CNC(=O)[C@@H]2C[C@@H](O)CN2C(=O)C(N)C(F)(F)F)cc1 (stereo partly drawn) [Example 89, (2S,4R)-1-(2-amino-3,3,3-trifluoropropanoyl)-4-hydroxy-N-(4-(4-methylthiazol-5-yl)benzyl)pyrrolidine-2-carboxamide] | – | 60.6 µM | 139 µM | – | –
COc1ccc(C(=O)N2C[C@H](O)C[C@H]2C(=O)NCc2ccc(-c3scnc3C)cc2)c(C)c1 [Example 88, (2S,4R)-4-hydroxy-1-(4-methoxy-2-methylbenzoyl)-N-(4-(4-methylthiazol-5-yl)benzyl)pyrrolidine-2-carboxamide] | – | 20.4 µM | 39.2 µM | – | –
Cc1ncsc1-c1ccc(CNC(=O)[C@@H]2C[C@@H](O)CN2C(=O)[C@@H](NC(=O)[C@H](C)N)C(C)(C)C)cc1 [Example 123, (2S,4R)-1-((S)-2-((S)-2-aminopropanamido)-3,3-dimethylbutanoyl)-4-hydroxy-N-(4-(4-methylthiazol-5-yl)benzyl)pyrrolidine-2-carboxamide] | – | 4.23 µM | – | – | –
CC(=O)NCC(=O)N1C[C@H](O)C[C@H]1C(=O)NCc1ccc(-c2scnc2C)cc1 [Example 86, (2S,4R)-1-(2-acetamidoacetyl)-4-hydroxy-N-(4-(4-methylthiazol-5-yl)benzyl)pyrrolidine-2-carboxamide] | – | 151 µM | 225 µM | – | –
CC(C)[C@@H](C(=O)N1C[C@H](O)C[C@H]1C(=O)NCc1ccc(-c2cnn[nH]2)cc1)N1Cc2ccccc2C1=O [Example 100, (2S,4R)—N-(4-(1H-1,2,3-triazol-5-yl)benzyl)-4-hydroxy-1-((S)-3-methyl-2-(1-oxoisoindolin-2-yl)butanoyl)pyrrolidine-2-carboxamide] | – | 9.77 µM | – | – | –
Cc1ncsc1-c1ccc(CNC(=O)[C@@H]2C[C@@H](O)CN2C(=O)C2(N3Cc4ccccc4C3=O)CCC2)cc1 [Example 55, (2S,4R)-4-hydroxy-N-(4-(4-methylthiazol-5-yl)benzyl)-1-(1-(1-oxoisoindolin-2-yl)cyclobutanecarbonyl)pyrrolidine-2-carboxamide] | – | 115 µM | 461 µM | – | –
CC[C@H](C)[C@H](NCCc1ccccc1)C(=O)N1C[C@H](O)C[C@H]1C(=O)NCc1ccc(-c2scnc2C)cc1 [Example 104, (2S,4R)-4-hydroxy-1-((2S,3S)-3-methyl-2-(phenethylamino)pentanoyl)-N-(4-(4-methylthiazol-5-yl)benzyl)pyrrolidine-2-carboxamide] | – | > 10 µM | – | – | –
Cc1ncsc1-c1ccc(CNC(=O)[C@@H]2C[C@@H](O)CN2C(=O)[C@H](CS)N2Cc3ccccc3C2=O)cc1 [Example 48, (2S,4R)-4-hydroxy-1-((R)-3-mercapto-2-(1-oxoisoindolin-2-yl)propanoyl)-N-(4-(4-methylthiazol-5-yl)benzyl)pyrrolidine-2-carboxamide] | – | 3.77 µM | 4.7 µM | – | –
COc1cccc(C(=O)N2C[C@H](O)CC2(C)C(=O)NCc2ccc(-c3scnc3C)cc2)c1 (stereo partly drawn) [Example 66, (4R)-4-hydroxy-1-(3-methoxybenzoyl)-2-methyl-N-(4-(4-methylthiazol-5-yl)benzyl)pyrrolidine-2-carboxamide] | – | – | – | Not Active | Not Active
CC(C)[C@@H](C(=O)N1C[C@H](O)C[C@H]1C(=O)NCc1ccc(C2CCOCC2)cc1)N1Cc2ccccc2C1=O [Example 118, (2S,4R)-4-hydroxy-1-((S)-3-methyl-2-(1-oxoisoindolin-2-yl)butanoyl)-N-(4-(tetrahydro-2H-pyran-4-yl)benzyl)pyrrolidine-2-carboxamide] | – | 330 µM | – | – | –
CC(=O)O[C@@H](C)C(=O)N1C[C@H](O)C[C@H]1C(=O)NCc1ccc(-c2scnc2C)cc1 [Example 87, (S)-1-((2S,4R)-4-hydroxy-2-(4-(4-methylthiazol-5-yl)benzylcarbamoyl)pyrrolidin-1-yl)-1-oxopropan-2-yl acetate] | – | 384 µM | 263 µM | – | –
Cc1cc(C(C)(C)C(=O)N2C[C@H](O)C[C@H]2C(=O)NCc2ccc(-c3scnc3C)cc2)on1 [Example 140, (2S,4R)-4-hydroxy-1-(2-methyl-2-(3-methylisoxazol-5-yl)propanoyl)-N-(4-(4-methylthiazol-5-yl)benzyl)pyrrolidine-2-carboxamide] | – | 157 µM | – | – | –

Now from value to molecule:

IC50 (0.25% in DMSO) | IC50 (1% in DMSO) | IC50 (10% in DMSO) | VHL FP Assay IC50 (1% in DMSO) | VHL FP Assay IC50 (10% in DMSO) | Structure (SMILES)
2.05 µM | 0.509 µM | 1.3 µM | – | – | Cc1ncsc1-c1ccc(CNC(=O)[C@@H]2C[C@@H](O)CN2C(=O)[C@H](C(C)C)N2Cc3c(C#N)cccc3C2=O)cc1 [Example 35, (2S,4R)-1-((S)-2-(4-cyano-1-oxoisoindolin-2-yl)-3-methylbutanoyl)-4-hydroxy-N-(4-(4-methylthiazol-5-yl)benzyl)pyrrolidine-2-carboxamide]
~1.57 µM | 3.04 µM | 8.31 µM | – | – | Cc1ncsc1-c1ccc(CNC(=O)[C@@H]2C[C@@H](O)CN2C(=O)[C@@H](NC(=O)C(C)C)C(C)(C)C)cc1 [Example 27, (2S,4R)-4-hydroxy-1-((S)-2-isobutyramido-3,3-dimethylbutanoyl)-N-(4-(4-methylthiazol-5-yl)benzyl)pyrrolidine-2-carboxamide]
– | 1.62 µM | 1.38 µM | – | – | Cc1ncsc1-c1ccc(CNC(=O)[C@@H]2C[C@@H](O)CN2C(=O)[C@@H](NC(=O)c2cccc(C#N)c2)C(C)(C)C)cc1 [Example 71, (2S,4R)-1-((S)-2-(3-cyanobenzamido)-3,3-dimethylbutanoyl)-4-hydroxy-N-(4-(4-methylthiazol-5-yl)benzyl)pyrrolidine-2-carboxamide]
2.27 µM | 0.572 µM | 0.859 µM | – | – | CC[C@H](C)[C@@H](C(=O)N1C[C@H](O)C[C@H]1C(=O)NCc1ccc(-c2scnc2C)cc1)N1Cc2ccccc2C1=O [Example 30, (2S,4R)-4-hydroxy-1-((2S,3S)-3-methyl-2-(1-oxoisoindolin-2-yl)pentanoyl)-N-(4-(4-methylthiazol-5-yl)benzyl)pyrrolidine-2-carboxamide]
– | 0.859 µM | – | – | – | COC1=CC(=O)N([C@H](C(=O)N2C[C@H](O)C[C@H]2C(=O)NCc2ccc(-c3scnc3C)cc2)C(C)C)C1 [Example 111, (2S,4R)-4-hydroxy-1-((S)-2-(4-methoxy-2-oxo-2,5-dihydro-1H-pyrrol-1-yl)-3-methylbutanoyl)-N-(4-(4-methylthiazol-5-yl)benzyl)pyrrolidine-2-carboxamide]
2.94 µM | 0.941 µM | 0.441 µM | – | – | Cc1ncsc1-c1ccc(CNC(=O)[C@@H]2C[C@@H](O)CN2C(=O)[C@H](C(C)C)N2Cc3c(Br)cccc3C2=O)cc1 [Example 26, (2S,4R)-1-((S)-2-(4-bromo-1-oxoisoindolin-2-yl)-3-methylbutanoyl)-4-hydroxy-N-(4-(4-methylthiazol-5-yl)benzyl)pyrrolidine-2-carboxamide]
– | 2.18 µM | – | – | – | Cc1ncsc1-c1ccc(CNC(=O)[C@@H]2C[C@@H](O)CN2C(=O)[C@@H](NC(=O)[C@H](C)NC(=O)OC(C)(C)C)C(C)(C)C)cc1 [Example 122, tert-butyl (S)-1-((S)-1-((2S,4R)-4-hydroxy-2-(4-(4-methylthiazol-5-yl)benzylcarbamoyl)pyrrolidin-1-yl)-3,3-dimethyl-1-oxobutan-2-ylamino)-1-oxopropan-2-ylcarbamate]
7.72 µM | 0.799 µM | 1.58 µM | – | – | CCc1ncsc1-c1ccc(CNC(=O)[C@@H]2C[C@@H](O)CN2C(=O)[C@H](C(C)C)N2Cc3ccccc3C2=O)cc1 [Example 5, (2S,4R)—N-(4-(4-ethylthiazol-5-yl)benzyl)-4-hydroxy-1-((S)-3-methyl-2-(1-oxoisoindolin-2-yl)butanoyl)pyrrolidine-2-carboxamide]
7.28 µM | 1.19 µM | 3.05 µM | – | – | CC(C)[C@@H](C(=O)N1C[C@H](O)C[C@H]1C(=O)NCc1ccc(-c2ccn[nH]2)cc1)N1Cc2ccccc2C1=O [Example 41, (2S,4R)—N-(4-(1H-pyrazol-5-yl)benzyl)-4-hydroxy-1-((S)-3-methyl-2-(1-oxoisoindolin-2-yl)butanoyl)pyrrolidine-2-carboxamide]
3.34 µM | 1.22 µM | 1.94 µM | – | – | C=Cc1ncsc1-c1ccc(CNC(=O)[C@@H]2C[C@@H](O)CN2C(=O)[C@H](C(C)C)N2Cc3ccccc3C2=O)cc1 [Example 4, (2S,4R)-4-hydroxy-1-((S)-3-methyl-2-(1-oxoisoindolin-2-yl)butanoyl)-N-(4-(4-vinylthiazol-5-yl)benzyl)pyrrolidine-2-carboxamide]
– | 2.38 µM | 2.28 µM | – | – | CC(C)[C@@H](C(=O)N1C[C@H](O)C[C@H]1C(=O)NCc1ccc(-c2scnc2Br)cc1)N1Cc2ccccc2C1=O [Example 1, (2S,4R)—N-(4-(4-bromothiazol-5-yl)benzyl)-4-hydroxy-1-((S)-3-methyl-2-(1-oxoisoindolin-2-yl)butanoyl)pyrrolidine-2-carboxamide]
– | 1.2 µM | – | – | – | Cc1ncsc1-c1ccc(CNC(=O)[C@@H]2C[C@@H](O)CN2C(=O)[C@H](C(C)C)N2Cc3ccccc3C2=O)cc1F [Example 93, (2S,4R)—N-(3-fluoro-4-(4-methylthiazol-5-yl)benzyl)-4-hydroxy-1-((S)-3-methyl-2-(1-oxoisoindolin-2-yl)butanoyl)pyrrolidine-2-carboxamide]
– | 0.566 µM | – | – | – | CC[C@H](C)[C@@H](C(=O)N1C[C@H](O)C[C@H]1C(=O)NCc1ccc(-c2scnc2C)cc1)N1Cc2ccc(F)cc2C1=O [Example 94, (2S,4R)-1-((2S,3S)-2-(6-fluoro-1-oxoisoindolin-2-yl)-3-methylpentanoyl)-4-hydroxy-N-(4-(4-methylthiazol-5-yl)benzyl)pyrrolidine-2-carboxamide]
3.77 µM | 0.937 µM | 1.65 µM | – | – | Cc1ncsc1-c1ccc(CNC(=O)[C@@H]2C[C@@H](O)CN2C(=O)[C@@H](NC(=O)CC2CCCCC2)C(C)(C)C)cc1 [Example 19, (2S,4R)-1-((S)-2-(2-cyclohexylacetamido)-3,3-dimethylbutanoyl)-4-hydroxy-N-(4-(4-methylthiazol-5-yl)benzyl)pyrrolidine-2-carboxamide]

Reference: patent US10730870B2, “Compounds and methods for the enhanced degradation of targeted proteins” (Arvinas, Inc., priority 2015, dated 2020)
